Laboratory results reported in US11591288B2, “Compositions and methods for treating atherosclerotic cardiovascular disease” (GAVISH-GALILEE BIO APPLICATIONS LTD., priority 2017, dated 2023).

Assays:
[1] = Clinical parameters of the in-vivo experiment (HFD fed Balb/c mice); parameters: unit not given here; conditions: lyso-DGTS via s.c. osmotic mini-pump, 28 days; for Glucose: p < 0.05 related to vehicle group
Experimental: (§1) Eight weeks old Balb/c mice where fed with normal rodent diet (the “non” group n=11) for 12 weeks or with high-fat diet (HFD) for 8 weeks. After 8 weeks, the HFD group was divided into two groups both treated via osmotic mini-pumps implanted subcutaneously: (1) vehicle group (the pumps contained 100 μl of DDW+2% Tween 80; n=9); (2) Lyso-DGTS group (the pumps contained 100 μl lyso-DGTS 1.4 mg/ml in DDW+2% Tween 80; n=1). The mice then continued with the same diet for another 4 weeks. The pumps injected 3.5 μl solution each day for 28 days until the end of the experiment. Blood was drawn and centrifuged at 2000 rpm for five minutes, and the serum was stored at −70° C. until the analyses. Clinical parameters were measured. Serum diluted by 20 with PBS and PON1 lactonase activity was measured using dihydrocumarine assay.
The effect of lyso-DGTS on lactonase PON1 activity was examined using Balb/c mice fed with HFD. Three groups of Balb/c mice were used: 1) the “non” group […] mice which was fed with normal rodent diet for 12 weeks; 2) the “vehicle” group n=9 mice which was fed with HFD for 8 weeks and then continued with the same diet for another 4 weeks with the injection of DDW+2% Tween via osmotic mini-pumps implanted subcutaneously; and 3) the lyso-DGTS group n=1 mice which was fed similar to the vehicle group and injected with lyso-DGTS at 1.43 mg/ml in DDW+2% Tween 80 (FIG. 14). At the end of the protocol, blood was withdrawn and clinical parameters and lactonase PON1 activity were measured. […] Lactonase PON1 activity of the mice serum was measured using dehydrocumarine assay.

HDL = HDL surface polarity, Laurdan General Polarization (Gp) assay; parameters: species or system human; conditions: HDL 100 μg/ml, lyso-DGTS 0-100 μg/ml
Experimental: The fluorescence emission spectra of Laurdan were obtained using at excitation/emission 340/400-520 nm. The value of Gp of Laurdan was calculated using the formula: Gp=(I435−I490)/(I435+I490). Each experiment was repeated separately at least three times. *p<0.05, ***p<0.0001 related to the control (HDL without lyso-DGTS). Statistics were analyzed using T-test Graphpad prism 5 software.
HDL particles are plurimolecular, quasi-spherical or discoid, pseudomicellar complexes predominantly composed of polar lipids solubilized by apolipoproteins. In order to determine a possible interaction between lyso-DGTS and the HDL lipid core, the Laurdan General Polarization (Gp) assay was used. […] This interaction may cause a change in its physical state and lipid core polarity and thus affect its functionality.

J774A.1 macrophages [2] = assay: rePON1 influx to J774A.1 macrophages (FITC-rePON1, FACS); format: cell-based, murine; conditions: 16 h, 61.62 for rePON1-FITC alone
Experimental: rePON1 (2 mg/ml) was reacted with fluorescein isothiocyanate (FITC) (200 μg/ml) for 1 h at 37° C. in the dark in borate buffer (PH=8.6). Glycine 10 mM was added and the solution was dialyzed using PBS buffer to remove FITC excess. RePON1-FITC conjugate (50 μg/ml) was incubated with lyso-DGTS at different concentration (10, 20, 50 and 100 μg/ml) into RPMI for 2 h. The solution was added to J774A.1 macrophages and incubated for 16 h. Cells were washed three times with sterile PBS buffer (0.1% sodium azid, 0.2% bovine serum albumin (BSA)), harvested in PBS (buffer) and analyzed by fluorescence-activated cell sorting (FACS) (Facscalibur 4ca). Results are presented as mean fluorescence intensity (MFI).
RePON1 was labeled with FITC and incubated with lyso-DGTS at different concentrations (10, 20, 50, and 100 μg/ml) for 2 h. Each solution was added to J774A.1 macrophages and incubated at 37° C. for 16 h, and then analyzed by fluorescence-activated cell sorting (FACS). […] The MFI increased from 61.62 for rePON1-FITS alone to 131.02, 368.61, 386.46, and 517.45 for rePON1 incubated with lyso-DGTS at 10, 20, 50, and 100 μg/ml, respectively (FIG. 6B).

J774A.1 macrophages [3] = assay: APOA1-mediated cholesterol efflux from macrophage cells; format: cell-based, murine
Experimental: J774A.1 cells were incubated for 4 h with RPMI buffer (media), APOA1 (10 μg) preincubated with DMSO or with lyso-DGTS (at final concentration of 10, 20, 50, and 100 μg/ml) for 2 h. Fluorescence was measured in media and cells at excitation/emission 482/515 nm. The cholesterol efflux was expressed as % efflux elicited by cells. Each experiment was repeated separately at least three times. *p<0.05, ***p<0.0001 relative to the control (APOA1 incubated with DMSO; n=3). Statistical analysis by one-way ANOVA and Graphpad prism 5 software.
APOA1 was incubated with lyso-DGTS at different concentrations (0, 10, 20, 50, and 100 μg/ml), and its ability to remove cholesterol from J774A.1 macrophages was measured by fluorometric assay (cell-based Cholesterol Efflux Fluorometric Assay Kit) and expressed as % of cholesterol efflux.

serum PON1 = biological target: T1, serum PON1 (Mus musculus, UniProt P52430); assay: Serum PON1 lactonase activity of Balb/c mice fed with high fat diet; format: in vivo; conditions: HFD mice, lyso-DGTS 1.43 mg/ml via s.c. osmotic mini-pump, 28 days; vs vehicle
T1 construct: from tissue; host or cells: serum of Balb/c mice
T1 sequence (P52430 whole entry): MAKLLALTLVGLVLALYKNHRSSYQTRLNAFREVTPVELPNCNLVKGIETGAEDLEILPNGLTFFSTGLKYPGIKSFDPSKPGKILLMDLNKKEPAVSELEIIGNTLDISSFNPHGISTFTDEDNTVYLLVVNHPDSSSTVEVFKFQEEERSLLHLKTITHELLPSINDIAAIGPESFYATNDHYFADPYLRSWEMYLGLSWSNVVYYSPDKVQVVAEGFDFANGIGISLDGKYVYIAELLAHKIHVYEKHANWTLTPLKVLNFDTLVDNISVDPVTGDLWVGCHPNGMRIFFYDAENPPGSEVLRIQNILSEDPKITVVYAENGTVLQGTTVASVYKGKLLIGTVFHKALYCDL
Experimental: as §1
The effect of lyso-DGTS on lactonase PON1 activity was examined using Balb/c mice fed with HFD. […] At the end of the protocol, blood was withdrawn and clinical parameters and lactonase PON1 activity were measured. […] Lactonase PON1 activity of the mice serum was measured using dehydrocumarine assay.

Which Cholesterol [1] does the source give for `CC/C=C\C/C=C\C/C=C\C/C=C\C/C=C\CCCC(=O)OCC(O)COCCC(C(=O)[O-])[N+](C)(C)C` (stereo not shown) [lyso-DGTS, lyso-diacylglyceryltrimethylhornmoserine] here?
Its Cholesterol is 4.03 ± 0.40.

And the HDL [1]?
Its HDL is 4.37 ± 0.42.

And the Triglycerides [1]?
The Triglycerides was 0.84 ± 0.26.

And the Glucose [1]?
The Glucose was 5.99±1.4.

And the Glucose ([1]; listed as Lyso-DGTS)?
The Glucose was 5.99 ± 1.4.

What about the “effect on HDL Gp values (Laurdan)” value (HDL) of the same molecule?
The value was “significantly decreased the HDL Gp values at a dose dependent manner at 20, 50, and 100 μg/ml”.

And the “mean fluorescence intensity (MFI) of FITC-rePON1 in cells” value (“mean fluorescence intensity (MFI)” below) (J774A.1 macrophages [2]; 10 μg/ml lyso-DGTS)?
The value was 131.02.

And the “mean fluorescence intensity (MFI)” value (J774A.1 macrophages [2]; 20 μg/ml lyso-DGTS)?
Its value is 368.61.

What about the “mean fluorescence intensity (MFI)” value (J774A.1 macrophages [2]; 50 μg/ml lyso-DGTS) of the same molecule?
The value was 386.46.

What about the “mean fluorescence intensity (MFI)” value (J774A.1 macrophages [2]; 100 μg/ml lyso-DGTS) of the same molecule?
The value was 517.45.

And the APOA1-mediated cholesterol efflux (J774A.1 macrophages [3]; APOA1+50 μg/ml lyso-DGTS, p<0.05)?
Its APOA1-mediated cholesterol efflux is roughly 25%.

And the APOA1-mediated cholesterol efflux (J774A.1 macrophages [3]; APOA1+100 μg/ml lyso-DGTS, p<0.0001)?
The APOA1-mediated cholesterol efflux was roughly 35%.

And the “increase of serum lactonase PON1 activity” value (serum PON1)?
The value was roughly 2.3 units.
